The record followed here is ChEMBL document CHEMBL5131522, “3-Pyrrolidine-indole Derivatives as 5-HT2-Selective Receptor Modulators for the Potential Treatment of Mental Disorders” (ACS Med Chem Lett, 2022).

This assay has as its target 5-hydroxytryptamine receptor 2A (Homo sapiens, UniProt P28223). Description: Agonist activity at human 5-HT2A receptor expressed in cells assessed as increase in calcium mobilization by Calcium-6 dye based FLIPR assay. The format is functional, cell-based. On the technique in general: Calcium flux is commonly read through the fluorescence of an indicator in the cells.

Some results are limits rather than exact numbers.

Sequence of 5-hydroxytryptamine receptor 2A (P28223 whole entry): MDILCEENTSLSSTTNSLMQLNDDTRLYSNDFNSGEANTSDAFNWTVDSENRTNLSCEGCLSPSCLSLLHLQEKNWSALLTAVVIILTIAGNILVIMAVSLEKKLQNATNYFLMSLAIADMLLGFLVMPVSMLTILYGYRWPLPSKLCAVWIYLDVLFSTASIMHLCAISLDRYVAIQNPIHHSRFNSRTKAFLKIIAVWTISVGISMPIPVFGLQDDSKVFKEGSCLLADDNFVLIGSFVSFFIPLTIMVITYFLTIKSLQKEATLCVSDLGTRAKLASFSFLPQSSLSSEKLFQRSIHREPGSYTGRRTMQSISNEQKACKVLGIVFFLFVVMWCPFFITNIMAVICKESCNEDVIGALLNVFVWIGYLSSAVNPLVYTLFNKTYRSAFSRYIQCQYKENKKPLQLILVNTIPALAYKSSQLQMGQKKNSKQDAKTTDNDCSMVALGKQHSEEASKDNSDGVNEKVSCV

Take `CN1CCC[C@@H]1Cc1c[nH]c2cccc(O)c12`: the EC50 (usually the midpoint of the concentration-response curve) is less than 1 µM. Then `[2H]C([2H])([2H])N1CCC[C@H]1Cc1c[nH]c2cccc(OCc3ccccc3)c12`, with less than 10 µM; and `[2H]C([2H])(c1c[nH]c2cccc(F)c12)[C@H]1CCCN1`, with 1 µM. Then `[2H]C([2H])(c1c[nH]c2cccc(OC)c12)[C@H]1CCCN1C([2H])([2H])[2H]`, with less than 1 µM. Take `Oc1cccc2[nH]cc(C[C@H]3CCCN3)c12`: the EC50 is less than 1 µM. Regarding `[2H]C([2H])(c1c[nH]c2cccc(O)c12)[C@H]1CCCN1C([2H])([2H])[2H]`, the EC50 was less than 1 µM.

Regarding `[2H]C([2H])(c1c[nH]c2cccc(F)c12)[C@H]1CCCN1C([2H])([2H])[2H]`, the concentration for a half-maximal effect (EC50) is less than 1 µM. Then `[2H]C([2H])(c1c[nH]c2cccc(O)c12)[C@@H]1CCCN1`, with less than 1 µM; and `[2H]C([2H])([2H])N1CCC[C@@H]1Cc1c[nH]c2cccc(O)c12`, with less than 1 µM.

Regarding `[2H]C([2H])([2H])N1CCC[C@@H]1Cc1c[nH]c2cccc(F)c12`, the EC50 was less than 1 µM.
